One may read the Km as the concentration of substrate that gives half-maximal velocity.

Two compounds from PMC6748984, “The coral Platygyra verweyi exhibits local adaptation to long-term thermal stress through host-specific physiological and enzymatic response” (Scientific Reports, 2019) can be followed below.

Experiment [1] concerns T1, MDH (malate dehydrogenase, major isozyme, DEAE peak II) of P. verweyi from NPP-OL.
T1 construct: gene MDH1; native, purified from host tissue extract of symbiotic coral; about 39 kDa by SDS-PAGE, native about 67 kDa, dimer
Kind of experiment: NADH oxidation, absorbance at […] nm. It counts as biochemical, Platygyra verweyi. Particulars: 100 mM phosphate pH 7.0, about 27 °C, read-out: apparent Km.

Experiment [2] has as its system T2, MDH (malate dehydrogenase, major isozyme, DEAE peak II) of P. verweyi from WLT.
T2 construct: gene MDH1; native, purified from host tissue extract of symbiotic coral; about 38 kDa by SDS-PAGE, native about 64 kDa, dimer
In words: NADH oxidation, absorbance at […] nm. The experiment is classed as biochemical, Platygyra verweyi. Particulars: 100 mM phosphate pH 7.0, about 27 °C, read-out: apparent Km.

The mark [3] stands for this setting: NADH varied 38-95 µM, OAA fixed (1 mM [sic]).
Setting [4] is: OAA varied 14-29 µM, NADH fixed (3 mM as printed).

Like-named read-outs stand apart in the source and are kept apart here.

In the case of `NC(=O)C1=CN([C@@H]2O[C@H](COP(=O)(O)OP(=O)(O)OC[C@H]3O[C@@H](n4cnc5c(N)ncnc54)[C@H](O)[C@@H]3O)[C@@H](O)[C@H]2O)C=CC1` [NADH], the results for the Km in experiment [1] (setting [3]) and in experiment [2] (setting [3]) were 7.5 µM and 12.7 µM, respectively.

`O=C(O)CC(=O)C(=O)O` [oxaloacetate]: the Km came to 9.4 µM in experiment [1] (setting [4]) and 5.7 µM in experiment [2] (setting [4]).
